“Also recorded” adds a separate entry of the source.
Experiments:
[1] = target: Ku70/80 heterodimer-DNA interaction (Homo sapiens, UniProt P12956+P13010); experiment: Electrophoretic Mobility Shift Assay (EMSA) of Ku70/80 binding to a DNA substrate; settings: for Disruption of Ku70/80-DNA interaction (disappearance of the band shift): compound at 100 μM in EMSA reaction
Source text: Next, the described ‘protomol’ was utilized as a guide to screen small molecule databases for potential inhibitors. Hits were sorted from highest to lowest docking scores and nine compounds were ultimately chosen for biological activity screening (see, Table 1). These compounds were commercially obtained and designated with a letter (A through H, and L). For initial activity screening experiments utilized an Electrophoretic Mobility Shift Assay (EMSA), in which a radioactively labeled artificial DNA substrate was incubated with a preparation of purified Ku70/80 protein, followed by non-denaturing gel electrophoresis. Interaction of Ku70/80 with DNA caused a measurable shift of the DNA band. […] Compounds C and L were further investigated for their ability to disrupt the Ku70/80 DNA interaction as well as Ku-dependent activation of the DNA-PKcs kinase.
Therefore, a two orders of magnitude range of serial dilutions of the compounds was added to the previously described EMSA reactions. Inhibition of Ku-DNA interaction in a straight forward dose-dependent manner by compound L alone was observed (FIG. 3B). In order to quantify the relative efficiency of Ku-DNA binding for each dose of Compound L, the intensity of the Ku-DNA bands in the EMSA assay was measured and normalized those values to a number between 0 and 100, where the value 0 represents a reaction where no Ku70/80 was present and the value 100 represents a reaction where no inhibitor was added. These normalized values were subsequently plotted against the corresponding concentrations of Compound L (FIG. 3B). A logarithmic trend line was added and equations were obtained to describe the dose-response curves of Compound L in the EMSA assay. […] IC50 values in this range are generally considered to be a viable starting point for lead-finding exploits.

[2] = target: DNA-PKCS kinase (Ku-dependent activation) (Homo sapiens, UniProt P12956+P13010); experiment: DNA-PKCS kinase activity assay, Ku70/80-dependent in vitro phosphorylation of a p53-based peptide substrate; assay type: biochemical; settings: for Impairment of Ku-dependent activation of DNA-PKCS: in vitro
Chain of DNA-PKCS kinase (Ku-dependent activation) (P12956 whole entry): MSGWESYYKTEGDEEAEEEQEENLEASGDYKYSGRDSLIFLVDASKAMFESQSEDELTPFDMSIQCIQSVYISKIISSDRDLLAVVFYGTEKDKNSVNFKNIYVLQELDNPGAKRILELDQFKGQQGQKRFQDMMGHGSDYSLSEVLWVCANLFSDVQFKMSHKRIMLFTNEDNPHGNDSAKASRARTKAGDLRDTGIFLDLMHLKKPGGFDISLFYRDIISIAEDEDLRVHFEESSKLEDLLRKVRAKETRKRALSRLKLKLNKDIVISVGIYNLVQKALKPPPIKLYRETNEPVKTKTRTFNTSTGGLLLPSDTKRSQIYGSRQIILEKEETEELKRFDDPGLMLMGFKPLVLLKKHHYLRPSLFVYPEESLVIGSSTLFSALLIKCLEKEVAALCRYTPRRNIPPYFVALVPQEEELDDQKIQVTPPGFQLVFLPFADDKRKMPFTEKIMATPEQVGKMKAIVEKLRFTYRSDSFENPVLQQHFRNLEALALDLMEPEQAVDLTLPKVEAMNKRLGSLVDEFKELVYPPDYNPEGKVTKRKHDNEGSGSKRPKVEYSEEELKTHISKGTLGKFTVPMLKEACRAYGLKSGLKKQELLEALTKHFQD
Chain of DNA-PKCS kinase (Ku-dependent activation) (P13010 whole entry): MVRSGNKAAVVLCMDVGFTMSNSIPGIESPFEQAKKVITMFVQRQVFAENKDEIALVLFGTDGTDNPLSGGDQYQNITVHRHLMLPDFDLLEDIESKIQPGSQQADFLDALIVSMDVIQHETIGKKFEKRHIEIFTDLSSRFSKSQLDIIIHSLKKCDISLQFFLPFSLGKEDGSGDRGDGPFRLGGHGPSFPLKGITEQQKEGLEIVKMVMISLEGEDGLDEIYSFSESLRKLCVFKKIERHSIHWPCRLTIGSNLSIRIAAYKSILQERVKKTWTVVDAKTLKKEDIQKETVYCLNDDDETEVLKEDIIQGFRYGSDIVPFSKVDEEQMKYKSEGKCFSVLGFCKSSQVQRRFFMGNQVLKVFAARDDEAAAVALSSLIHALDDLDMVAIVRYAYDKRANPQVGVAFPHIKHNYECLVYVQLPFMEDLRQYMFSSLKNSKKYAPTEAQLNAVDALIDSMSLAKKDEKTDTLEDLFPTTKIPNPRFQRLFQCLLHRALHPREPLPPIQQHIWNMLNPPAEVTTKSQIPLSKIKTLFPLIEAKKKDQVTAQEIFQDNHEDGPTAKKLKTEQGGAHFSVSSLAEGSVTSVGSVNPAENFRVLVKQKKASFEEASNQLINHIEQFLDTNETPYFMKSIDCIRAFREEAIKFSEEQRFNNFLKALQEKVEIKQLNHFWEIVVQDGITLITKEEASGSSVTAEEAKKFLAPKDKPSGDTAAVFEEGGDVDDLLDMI
Source text: To further validate the Ku-inhibitory activity of Compound L, experiments examined its effects on Ku-dependent activation of the DNA-PKCS kinase. […] It is, however, a potent co-factor for the activation of other NHEJ enzymes, including DNA-PKCS (see, G. C. Smith, et al., Genes Dev., 13 (1999), pp. 916-934). It was therefore reasoned that disruption of the Ku-DNA interaction by Compound L should also diminish DNA-PKCS kinase activity. The DNA-PKCS kinase has multiple known downstream targets, including p53, Artemis, and DNA-PKCS itself (see, E. Weterings, et al., Cell Res., 18 (2008), pp. 114-124; G. C. Smith, et al., Genes Dev., 13 (1999), pp. 916-934). It is at present not entirely clear which targets are critical for the overall DNA repair response, but it is evident that the kinase domain of DNA-PKCS is indispensable. Experiments therefore quantified the kinase activity of a purified preparation of the DNA-PKCS protein in the presence of different concentrations of Compound L. Experiments measured the phosphorylation of a p53-based peptide substrate as an arbitrary reporter of DNA-PKCS kinase activity. The obtained in vitro DNA-PKCS kinase activities were subsequently normalized and plotted as a function of compound L concentration (FIG. 4A). Experiments observed a sharp dose-dependent inhibition of DNA-PKCS kinase activity. […] Therefore, both primary (EMSA) and secondary (DNA-PKCS activity) assays for the Ku-inhibitory potential of Compound L indicate an IC50 value in the lower micro-molar range.
This example compares the in vitro activity of several structural analogs of Compound L. This assay measures the effect of each compound on the in vitro activity of the DNA-PKCS kinase.

[3] = system: SF-767 glioblastoma cells; experiment: Radiation sensitization / cytotoxicity by MTS assay in glioblastoma cells; assay type: cell-based, human; settings: for Sensitization to radiation therapy (RT): human glioblastoma multiforme (GBM) cells
Protocol: (§1) Consequently, this substance could have an effect on the efficiency of overall repair of DSBs. In order to examine this potential, experiments tested Compound L for its ability to potentiate the effects of ionizing radiation on two human cell lines: the glioblastoma cell line SF-767 (FIG. 5A), and an hTERT immortalized prostate epithelial (PrEC) cell line (see, R. Berger, et al., Cancer Res., 64 (2004), pp. 8867-8875) (FIG. 5B). Cultured cells were treated with either the compound as a single modality, ionizing radiation as a single modality or with a regimen of concurrent radiation and compound. Cell viability was measured after a six day recovery period by standard MTS assay and normalized to the untreated control (no compound or radiation). FIG. 5 presents the observed effects of each treatment modality in terms of percentage non-viable cells. The effects are plotted as a function of the compound's concentration in the culture medium.
(§2) As expected, experiments observed a clear, dose-dependent increase in non-viable cell population with increasing concentrations of Compound L (FIG. 5, red columns). This reflects the fundamental cytotoxicity of the compound under the chosen experimental conditions. In both cell lines, toxicity of Compound L stayed low (below 5% non-viability) up to 25 μM, after which an exponential increase in cytotoxicity was observed. […] In order to exclude the possibility that this phenomenon was caused by mere additive effects, experiments calculated the sum of the effects of the single modalities (FIG. 5, purple columns) and compared the obtained values with the effects of the combination treatments. By definition, synergism is present when the effect of the combination therapy (green columns) exceeds the sum of the effects of the single modalities (purple columns). In SF-767 cells, synergism was most clearly observed between 20 and 30 μM (FIG. 5A) and in immortalized PrEC cells synergism was present in the 20-35 μM range (FIG. 5B).
(§3) This is done by means of a standard MTS assay, measuring survival of human glioblastoma (SF767) or immortalized prostate epithelial (PrEC) cells 7 days after treatment with compounds and radiation therapy. […] The radiation-sensitizing potential of Compound L and JV761 is attributable to the ability of these compounds to suppress the activity of Ku70/80 in vivo.

[4] = system: DNA double strand break (DSB) repair in glioblastoma cells (SF767); experiment: DSB repair after radiation by γ-H2AX phosphorylation; assay type: cell-based, human; settings: 25 μM, post radiation
Protocol: This repair process is dependent on active Ku70/80 and the suppression of Ku-dependent DSB repair is further proof that Compound L inhibits Ku70/80 activity. The relative amount of DSBs is measured by counting the relative intensity of a canonical DSB marker: γ-H2AX.
Relative number of DSBs was measured by quantifying and normalizing γ-H2AX phosphorylation. […] Measured in human glioblastoma cells (SF767). Error bars represent standard error.

[5] = system: DNA-PKCS SER2056 autophosphorylation in SF-767 cells; experiment: DNA-PKCS autophosphorylation assay (Western blot) after etoposide-induced DSBs; assay type: cell-based, human
Source text: In order to further examine the effects of Compound L on Ku-dependent activation of the DNA-PKCS kinase in vivo, experiments also exposed cultures of the human glioblastoma cell line SF-767 to increasing concentrations of Compound L. Upon induction of DSBs by etoposide, experiments quantified the levels of DNA-PKCS autophosphorylation at the SER2056 residue by means of Western blot analysis (FIG. 4B).

[6] = Radiation sensitization / cytotoxicity by MTS assay in prostate epithelial cells; assay type: cell-based, human; settings: human, hTERT immortalized prostate epithelial (PrEC) cells; PrEC, up to 25 μM, MTS after six day recovery; read-out: Non-viability (toxicity of compound as single modality)
Protocol: as §1
(§4) As expected, experiments observed a clear, dose-dependent increase in non-viable cell population with increasing concentrations of Compound L (FIG. 5, red columns). […] In order to exclude the possibility that this phenomenon was caused by mere additive effects, experiments calculated the sum of the effects of the single modalities (FIG. 5, purple columns) and compared the obtained values with the effects of the combination treatments. […]

[7] = system: hTERT immortalized prostate epithelial (PrEC) cells; experiment: as above; assay type: cell-based, human; settings: immortalized PrEC, concurrent compound and radiation, FIG. 5B
Protocol: as §1, §4

[8] = Tolerability and toxicity after bolus IP injection with two week follow-up; assay type: in vivo; settings: mice
[9] = Pharmacokinetic profile after bolus IP injection, plasma levels by LC-MS; assay type: in vivo, nude mice; settings: bolus IP 1, 3 or 5 mg/kg
Protocol: A bolus IP injection of Compound L was given at either 1, 3, or 5 mg/kg and plasma levels of Compound L were determined by LC-MS.

[10] = Radiation sensitization / cytotoxicity by MTS assay in glioblastoma cells; assay type: cell-based, human; settings: human, SF-767 glioblastoma cells; SF-767, up to 25 μM, MTS after six day recovery; read-out: Non-viability (toxicity of compound as single modality)
Protocol: as §1, §2, §3

Chain of Ku70/80 heterodimer-DNA interaction (P12956 whole entry): as the sequence (P12956 whole entry) above
Chain of Ku70/80 heterodimer-DNA interaction (P13010 whole entry): as the sequence (P13010 whole entry) above

## COc1ccc(N2CCN(Cc3nc(N)nc(Nc4cccc(C)c4)n3)CC2)cc1 [Compound C, 4-[[4-(4-methoxyphenyl)piperazin-1-yl]methyl]-6-(m-tolyimino)-5H-1,3,5-triazin-2-amine]
[1]
  Disruption of Ku70/80-DNA interaction (disappearance of the band shift): disruption of the Ku70/80-DNA interaction; also recorded: screen positive for disruption of Ku70/80-DNA interaction; also recorded: capable of disrupting the binding of Ku to DNA
[2]
  Impairment of Ku-dependent activation of DNA-PKCS: capable of disrupting the binding of Ku to DNA as well as the activation of DNA-PKCS
[3]
  Sensitization to radiation therapy (RT): synergistically sensitize

## COc1ccc(CCNc2ncc3c(=O)n(-c4cccc(F)c4)c(=O)[nH]c3n2)cc1OC [Compound L, 7-[[2-(3,4-dimethoxyphenyl)ethyl]amino]-3-(3-fluorophenyl)pyrimido[4,5-d] pyrimidine-2,4(1H,3H)-dione]
[1]; EMSA titration, logarithmic trend line, read-out: IC50, dose needed to inhibit 50% of maximal Ku-DNA binding
  IC50: 3500 nM
[1]
  Disruption of Ku70/80-DNA interaction (disappearance of the band shift): disruption of the Ku70/80-DNA interaction; also recorded: screen positive for disruption of Ku70/80-DNA interaction; also recorded: capable of disrupting the binding of Ku to DNA
[4]
  DSB repair kinetics (γ-H2AX): significantly delayed
[5]; Western blot
  Total DNA-PKCS level: not suppressed
[5]; increasing doses, etoposide
  DNA-PKCS autophosphorylation at the SER2056 residue: sharp decline
[6]
  cytotoxicity at 6 days: < 5%
[7]
  Concentration range of synergism with radiation: 20 to 35 µM
[8]; after two weeks
  Histopathology and comprehensive blood panels: no abnormalities; also recorded: normal
[8]; bolus IP, acute and two week follow-up
  Signs of toxicity: did not reveal any acute toxicity; also recorded: did not reveal signs of toxicity
[8]; single bolus IP injection up to 5 mg/kg
  Tolerability: well tolerated
[2]
  Impairment of Ku-dependent activation of DNA-PKCS: capable of disrupting the binding of Ku to DNA as well as the activation of DNA-PKCS
[2]; p53-based peptide substrate, logarithmic trend line
  IC50: 2500 nM
[9]; LC-MS
  Plasma levels versus dose: directly proportional to dose
[9]; mouse, plasma, nude mice
  half-life: ~1.5 h
[3]; human cancer cells, 4Gy radiation, MTS 7 days after treatment, FIG. 9
  Concentration range of synergistic radiation-sensitization: 20 to 30 µM
[3]
  Sensitization to radiation therapy (RT): synergistically sensitize
[10]
  cytotoxicity at 6 days: < 5%

Source: patent US10308656B2, “Small molecule inhibitors of Ku70/80 and uses thereof” (ARIZONA BOARD OF REGENTS ON BEHALF OF THE UNIVERSITY OF …, priority 2015, dated 2019)
